{"source": "patent US12594276B2", "about": "“Inhibitors of human immunodeficiency virus replication” (ViiV Healthcare UK (No.5) Limited, priority 2024, dated 2026)", "key": {"[1]": {"system": "recombinant NL4-3 virus (nef section replaced with Renilla luciferase gene) in MT-2 cells", "test": "HIV cell culture assay (antiviral activity, luciferase readout)", "assay_type": "cell-based", "details": "Renilla, NL43, MT-2 cells infected for 4-5 days with recombinant NL4-3 Renilla luciferase virus", "procedure": "HIV cell culture assay—MT-2 cells, 293T cells and the proviral DNA clone of NL4-3 virus were obtained from the NIH AIDS Research and Reference Reagent Program. MT-2 cells were propagated in RPMI 1640 media supplemented with 10% heat inactivated fetal bovine serum (FBS), […]. The 293T cells were propagated in DMEM media supplemented with 10% heat inactivated FBS, […]. A recombinant NL4-3 proviral clone, in which a section of the nef gene was replaced with the Renilla luciferase gene, was used to make the reference virus used in these studies. The recombinant virus was prepared through transfection of the recombinant NL4-3 proviral clone into 293T cells using Transit-293 Transfection Reagent from Mirus Bio LLC (Madison, WI). Supernatant was harvested after 2-3 days and the amount of virus present was titered in MT-2 cells using luciferase enzyme activity as a marker by measuring luciferase enzyme activity. Luciferase was quantitated using the EnduRen Live Cell Substrate from Promega (Madison, WI). Antiviral activities of compounds toward the recombinant virus were quantified by measuring luciferase activity in MT-2 cells infected for 4-5 days with the recombinant virus in the presence of serial dilutions of the compound.\nThe 50% effective concentration (EC50) was calculated by using the exponential form of the median effect equation where (Fa)=1/[1+(ED50/drug conc.)m](Johnson V A, Byington R T. Infectivity Assay. In Techniques in HIV Research. ed. Aldovini A, Walker B D. 71-76. New York: Stockton Press. 1990). Curve fitting and analysis were performed with ActivityBase XE Runner software version 9.1.0.4 using model 203 (ID Business Solutions, LTD, Guildford, UK)."}, "[2]": {"test": "Compound cytotoxicity, XTT-based colorimetric assay", "assay_type": "cell-based", "details": "human; uninfected MT2 cells, day 4, XTT; read-out: CC50", "procedure": "Compound cytotoxicity and the corresponding CC50 values were determined using the same protocol as described in the antiviral assay except that uninfected cells were used. Cytotoxicity was assessed on day 4 in uninfected MT2 cells by using an XTT (2,3-bis[2-Methoxy-4-nitro-5-sulfophenyl]-2H-tetrazolium-5-carboxyanilide inner salt)-based colorimetric assay (Sigma-Aldrich, St Louis, Mo)."}}, "data": [{"smiles": "Cc1cc(C2CCC(F)(F)CC2)nc2nc([C@H](Cc3cc(F)cc(F)c3)NC(=O)Cn3nc(C4CC4)c4c3C[C@@H]3C[C@H]43)n(-c3ccc(Cl)c4c(NS(C)(=O)=O)nn(CCN5C[C@H](F)C[C@H](F)C5)c34)c(=O)c12", "note": "(atropisomer, axis not shown; (P)) [Example 1, N-[(1S)-1-[(3P)-3-(4-chloro-1-{2-[(3R,5S)-3,5-difluoropiperidin-1-yl]ethyl}-3-methanesulfonamido-1H-indazol-7-yl)-7-(4,4-difluorocyclohexyl)-5-methyl-4-oxo-3H,4H-pyrido[2,3-d]pyrimidin-2-yl]-2-(3,5-difluorophenyl)ethyl]-2-[(2S,4S)-9-cyclopropyl-7,8-diazatricyclo[4.3.0.0^2,^4]nona-1(6),8-dien-7-yl]acetamide]", "values": [{"measurement": "EC50", "setting": "[1]", "result": 0.009, "unit": "nM"}, {"measurement": "CC50 at 4 days", "setting": "[2]", "result": "> 50", "unit": "nM"}]}, {"smiles": "Cc1cc(C2CCC(F)(F)CC2)nc2nc([C@H](Cc3cc(F)cc(F)c3)NC(=O)Cn3nc(C4CC4)c4c3C[C@@H]3C[C@H]43)n(-c3ccc(Cl)c4c(NS(C)(=O)=O)nn(CCN5CCCC(F)(F)C5)c34)c(=O)c12", "note": "(atropisomer, axis not shown; (P)) [Example 2, N-[(1S)-1-[(3P)-3-{4-chloro-1-[2-(3,3-difluoropiperidin-1-yl)ethyl]-3-methanesulfonamido-1H-indazol-7-yl}-7-(4,4-difluorocyclohexyl)-5-methyl-4-oxo-3H,4H-pyrido[2,3-d]pyrimidin-2-yl]-2-(3,5-difluorophenyl)ethyl]-2-[(2S,4S)-9-cyclopropyl-7,8-diazatricyclo[4.3.0.0^2,^4]nona-1(6),8-dien-7-yl]acetamide]", "values": [{"measurement": "EC50", "setting": "[1]", "result": 0.008, "unit": "nM"}, {"measurement": "CC50 at 4 days", "setting": "[2]", "result": "> 50", "unit": "nM"}]}, {"smiles": "Cc1cc(C2CCC(F)(F)CC2)nc2nc([C@H](Cc3cc(F)cc(F)c3)NC(=O)Cn3nc(C4CC4)c4c3C[C@@H]3C[C@H]43)n(-c3ccc(Cl)c4c(NS(C)(=O)=O)nn(CCN5CCCC(F)(F)CC5)c34)c(=O)c12", "note": "(atropisomer, axis not shown; (P)) [Example 3, N-[(1S)-1-[(3P)-3-{4-chloro-1-[2-(4,4-difluoroazepan-1-yl)ethyl]-3-methanesulfonamido-1H-indazol-7-yl}-7-(4,4-difluorocyclohexyl)-5-methyl-4-oxo-3H,4H-pyrido[2,3-d]pyrimidin-2-yl]-2-(3,5-difluorophenyl)ethyl]-2-[(2S,4S)-9-cyclopropyl-7,8-diazatricyclo[4.3.0.0^2,^4]nona-1(6),8-dien-7-yl]acetamide]", "values": [{"measurement": "EC50", "setting": "[1]", "result": 0.009, "unit": "nM"}, {"measurement": "CC50 at 4 days", "setting": "[2]", "result": "> 50", "unit": "nM"}]}, {"smiles": "Cc1cc(C2CCC(F)(F)CC2)nc2nc([C@H](Cc3cc(F)cc(F)c3)NC(=O)Cn3nc(C4CC4)c4c3C[C@@H]3C[C@H]43)n(-c3ccc(Cl)c4c(NS(C)(=O)=O)nn(CCN5C[C@H]6CC[C@@H](C5)O6)c34)c(=O)c12", "note": "(atropisomer, axis not shown; (P)) [Example 4, N-[(1S)-1-[(3P)-3-(4-chloro-3-methanesulfonamido-1-{2-[(1R,5S)-8-oxa-3-azabicyclo[3.2.1]octan-3-yl]ethyl}-1H-indazol-7-yl)-7-(4,4-difluorocyclohexyl)-5-methyl-4-oxo-3H,4H-pyrido[2,3-d]pyrimidin-2-yl]-2-(3,5-difluorophenyl)ethyl]-2-[(2S,4S)-9-cyclopropyl-7,8-diazatricyclo[4.3.0.0^2,^4]nona-1(6),8-dien-7-yl]acetamide]", "values": [{"measurement": "EC50", "setting": "[1]", "result": 0.007, "unit": "nM"}, {"measurement": "CC50 at 4 days", "setting": "[2]", "result": "> 50", "unit": "nM"}]}, {"smiles": "Cc1cc(C2CCC(F)(F)CC2)nc2nc([C@H](Cc3cc(F)cc(F)c3)NC(=O)Cn3nc(C(F)F)c4c3C(F)(F)[C@@H]3C[C@H]43)n(-c3ccc(Cl)c4c(NS(C)(=O)=O)nn(CCN5C[C@H](F)C[C@H](F)C5)c34)c(=O)c12", "note": "(atropisomer, axis not shown; (P)) [Example 5, N-[(1S)-1-[(3P)-3-(4-chloro-1-{2-[(3R,5S)-3,5-difluoropiperidin-1-yl]ethyl}-3-methanesulfonamido-1H-indazol-7-yl)-7-(4,4-difluorocyclohexyl)-5-methyl-4-oxo-3H,4H-pyrido[2,3-d]pyrimidin-2-yl]-2-(3,5-difluorophenyl)ethyl]-2-[(2S,4R)-9-(difluoromethyl)-5,5-difluoro-7,8-diazatricyclo[4.3.0.0^2,4]nona-1(6),8-dien-7-yl]acetamide]", "values": [{"measurement": "EC50", "setting": "[1]", "result": 0.009, "unit": "nM"}, {"measurement": "CC50 at 4 days", "setting": "[2]", "result": "> 20000", "unit": "nM"}]}, {"smiles": "Cc1cc(C2CCC(F)(F)CC2)nc2nc([C@H](Cc3cc(F)cc(F)c3)NC(=O)Cn3nc(C(F)F)c4c3C(F)(F)[C@@H]3C[C@H]43)n(-c3ccc(Cl)c4c(NS(C)(=O)=O)nn(C[C@@H](C)N5CC(C)(C)OC(C)(C)C5)c34)c(=O)c12", "note": "(atropisomer, axis not shown; (P)) [Example 705, N-[(1S)-1-[(3P)-3-{4-chloro-3-methanesulfonamido-1-[(2R)-2-(2,2,6,6-tetramethylmorpholin-4-yl)propyl]-1H-indazol-7-yl}-7-(4,4-difluorocyclohexyl)-5-methyl-4-oxo-3H,4H-pyrido[2,3-d]pyrimidin-2-yl]-2-(3,5-difluorophenyl)ethyl]-2-[(2S,4R)-9-(difluoromethyl)-5,5-difluoro-7,8-diazatricyclo[4.3.0.0^2,^4]nona-1(6),8-dien-7-yl]acetamide]", "values": [{"measurement": "EC50", "setting": "[1]", "result": 0.021, "unit": "nM"}]}, {"smiles": "Cc1cc(C2(F)CCC(F)(F)CC2)nc2nc([C@H](Cc3cc(F)cc(F)c3)NC(=O)Cn3nc(C(F)F)c4c3C(F)(F)[C@@H]3C[C@H]43)n(-c3ccc(Cl)c4c(NS(C)(=O)=O)nn(C[C@@H](C)N5CC(C)(C)OC(C)(C)C5)c34)c(=O)c12", "note": "(atropisomer, axis not shown; (P)) [Example 707, N-[(1S)-1-[(3P)-3-{4-chloro-3-methanesulfonamido-1-[(2R)-2-(2,2,6,6-tetramethylmorpholin-4-yl)propyl]-1H-indazol-7-yl}-5-methyl-4-oxo-7-(1,4,4-trifluorocyclohexyl)-3H,4H-pyrido[2,3-d]pyrimidin-2-yl]-2-(3,5-difluorophenyl)ethyl]-2-[(2S,4R)-9-(difluoromethyl)-5,5-difluoro-7,8-diazatricyclo[4.3.0.0^2,^4]nona-1(6),8-dien-7-yl]acetamide]", "values": [{"measurement": "EC50", "setting": "[1]", "result": 0.038, "unit": "nM"}]}, {"smiles": "Cc1cc(C2(F)CCC(F)(F)CC2)nc2nc([C@H](Cc3cc(F)cc(F)c3)NC(=O)Cn3nc(C(F)F)c4c3C(F)(F)[C@@H]3C[C@H]43)n(-c3ccc(Cl)c4c(NS(C)(=O)=O)nn([C@H](C)C(=O)N5C[C@H](F)C[C@H](F)C5)c34)c(=O)c12", "note": "(atropisomer, axis not shown; (P)) [Example 755, N-[(1S)-1-[(3P)-3-{4-chloro-1-[(2R)-1-[(3R,5S)-3,5-difluoropiperidin-1-yl]-1-oxopropan-2-yl]-3-methanesulfonamido-1H-indazol-7-yl}-5-methyl-4-oxo-7-(1,4,4-trifluorocyclohexyl)-3H,4H-pyrido[2,3-d]pyrimidin-2-yl]-2-(3,5-difluorophenyl)ethyl]-2-[(2S,4R)-9-(difluoromethyl)-5,5-difluoro-7,8-diazatricyclo[4.3.0.0^2,^4]nona-1(6),8-dien-7-yl]acetamide]", "values": [{"measurement": "EC50", "setting": "[1]", "result": 0.027, "unit": "nM"}]}, {"smiles": "Cc1cc(C2CCC(F)(F)CC2)nc2nc([C@H](Cc3cc(F)cc(F)c3)NC(=O)Cn3nc(C4CC4)c4c3C[C@@H]3C[C@H]43)n(-c3ccc(Cl)c4c(NS(C)(=O)=O)nn(C[C@@H](C)N5CC(C)(C)OC(C)(C)C5)c34)c(=O)c12", "note": "(relative stereo) [Example 706, N-[(1S)-1-[(3P)-3-{4-chloro-3-methanesulfonamido-1-[(2R)-2-(2,2,6,6-tetramethylmorpholin-4-yl)propyl]-1H-indazol-7-yl}-7-(4,4-difluorocyclohexyl)-5-methyl-4-oxo-3H,4H-pyrido[2,3-d]pyrimidin-2-yl]-2-(3,5-difluorophenyl)ethyl]-2-[(2R*,4R*)-9-cyclopropyl-7,8-diazatricyclo[4.3.0.0^2,^4]nona-1(6),8-dien-7-yl]acetamide]", "values": [{"measurement": "EC50", "setting": "[1]", "result": 0.015, "unit": "nM"}]}, {"smiles": "Cc1cc(C2(F)CCC(F)(F)CC2)nc2nc([C@H](Cc3cc(F)cc(F)c3)NC(=O)Cn3nc(C4CC4)c4c3C[C@@H]3C[C@H]43)n(-c3ccc(Cl)c4c(NS(C)(=O)=O)nn([C@H](C)C(=O)N5C[C@H](F)C[C@H](F)C5)c34)c(=O)c12", "note": "(relative stereo) [Example 756, N-[(1S)-1-[(3P)-3-{4-chloro-1-[(2R)-1-[(3R,5S)-3,5-difluoropiperidin-1-yl]-1-oxopropan-2-yl]-3-methanesulfonamido-1H-indazol-7-yl}-5-methyl-4-oxo-7-(1,4,4-trifluorocyclohexyl)-3H,4H-pyrido[2,3-d]pyrimidin-2-yl]-2-(3,5-difluorophenyl)ethyl]-2-[(2R*,4R*)-9-cyclopropyl-7,8-diazatricyclo[4.3.0.0^2,^4]nona-1(6),8-dien-7-yl]acetamide]", "values": [{"measurement": "EC50", "setting": "[1]", "result": 0.037, "unit": "nM"}]}]}
